≈ marks a conversion by molar mass, not a printed value. Marks after values point to notes of the source that are not given here. Where a SMILES comes first, the peptide text is derived from it. [ ]: non-standard residue; d: D form. The star is where a group is joined. JQ1acid = Cc1sc2c(c1C)C(c1ccc(Cl)cc1)=N[C@@H](CC(=O)*)c1nnc(C)n1-2; NHBn(4-(4-Me-thiazol-5-yl)) = Cc1ncsc1-c1ccc(CN*)cc1; Hyp = O=C(O)[C@@H]1C[C@@H](O)CN1; Tle = CC(C)(C)[C@H](N)C(=O)O; Sar = CNCC(=O)O
Experiments:
[1] = target: T1, BRD4 (Homo sapiens, UniProt O60885); experiment: BRD4 degradation by Western blot analysis in MDA-MB-231 cells; assay type: cell-based; settings: for dose-response of BRD4 degradation (in words): 100 nM to 10 μM; for effect of cotreatment with proteasome inhibitor bortezomib on BRD4 degradation: 1 μM compound + 5 nM bortezomib; for BRD4 degradation in time-course experiments (in words) / Densitometry (% of control), BRD4-immunoreactive band relative to DMSO vehicle: 1 μM; for BRD4 degradation in time-course experiments (in words): 4 up to 24 h
T1 construct: endogenous in cells; host or cells: MDA-MB-231
Protocol: In Vitro Biological Validation of PROTACs and Preliminary Assessment of Thermodynamic Aqueous Solubility and Metabolic Stability of Selected BRD4-Degrading PROTACs. With the aim of proving the utility of our platform and the compatibility of the substructures accessible by the MCR strategy with a proximity-based degradation, the ability of our PROTAC candidates to effectively act as BRD4 degraders was tested in the human breast cancer cell line MDA-MB-231, known to express detectable levels of this protein.
The human breast adenocarcinoma MDA-MB-231 cell line was cultured in DMEM (Sigma-Aldrich) supplemented with 10% fetal bovine serum (FBS), 1% glutamine, and 1% penicillin/streptomycin. For Western blot analysis, […] cells/well were plated into 12-well plates containing DMEM complete growth medium, to be treated with the synthesized compounds, at the indicated concentrations, for different time lengths. After treatments, cells were scraped and lysed to obtain protein extract using RIPA lysis buffer supplemented with protease (PIC, Merck-Millipore) and phosphatase inhibitors (NaF 1 M, Na3VO4 1 M, PMSF […], Sigma-Aldrich). Cells lysates were centrifuged at 13 000 rpm for 10 min at 4 °C to remove membranes and insoluble fractions. Protein quantification of the supernatant fraction was performed with Braford protein assay (Sigma-Aldrich). […] aliquots of protein extracts were used for 12% SDS-PAGE. After transfer into nitrocellulose membranes, BRD4 and tubulin protein levels were evaluated by immunoblotting using a rabbit polyclonal anti-BRD4 (Bethyl Laboratories) and a mouse monoclonal α-tubulin (Sigma-Aldrich) IgG as primary antibodies and an antirabbit or antimouse HRP-conjugated secondary antibody (Bio-Rad Laboratories). Protein levels were detected by chemiluminescent conversion of the HRP substrate LumiGLO (Thermo Fisher Scientific) using the ChemiDoc imaging system (Bio-Rad). Band densitometry was assessed, normalized to α-tubulin immunoreactive bands, and reported as percentage of the 0.3% DMSO control lane.

[2] = Thermodynamic aqueous solubility; assay type: physicochemical; settings: 2 h
Protocol: Saturated solutions were prepared by dissolving the tested compounds in 0.1 M phosphate-buffered saline (pH = 7.4) or 0.01 N HCl solutions and sonicated for 30 s. After equilibration on an orbital shaker at 25 °C for 2 h, the solutions were centrifuged at 13 000 rpm for 5 min and filtered through a 0.2 μm regenerated cellulose (RC) syringe filter. A 400 μL aliquot of each filtrate was diluted with 100 μL of acetonitrile and analyzed by LC-UV. When the measured peak area was out of the calibration range (5–100 μM), the sample was further diluted in water–acetonitrile 1:1 mixture.

[3] = parameters: method as in PMID 28378579; settings: cited from earlier work
[4] = 8 h treatment, MDA-MB-231 cells, from Western blot densitometry
[5] = 0.01 N HCl solution, HCl 0.01 N, pH 2.0, 25 °C
[6] = phosphate-buffered saline, PBS 0.1 M, pH 7.4, 25 °C

Row | dose-response of BRD4 degradation (in words) ([1]; 8 h, MDA-MB-231 cells) | effect of cotreatment with proteasome inhibitor bortezomib on BRD4 degradation ([1]; 8 h) | DC50 [1, 4] [nM] | solubility thermodynamic at 2 h [2, 5] [µM] | solubility thermodynamic at 2 h [2, 6] [µM] | melting point | Densitometry (% of control), BRD4-immunoreactive band relative to DMSO vehicle ([1]; 4 h, MDA-MB-231 cells) | Densitometry (% of control), BRD4-immunoreactive band relative to DMSO vehicle ([1]; 8 h, MDA-MB-231 cells) | Structure (SMILES) | BRD4 degradation in time-course experiments (in words) ([1]; MDA-MB-231 cells) | other results
1 | showed dose-dependency | abolish BRD4 degradation | 97.1 | 145 (≈ 112 µg/mL) | 48 (≈ 37 µg/mL) | 221.3 to 223.6 °C (dec.) | – | – | Cc1sc2c(c1C)C(c1ccc(Cl)cc1)=N[C@@H](CC(=O)NCC(=O)NCCCOc1cccc3c1C(=O)N(C1CCC(=O)NC1=O)C3=O)c1nnc(C)n1-2 (stereo partly drawn) [Compound 27, 2-((S)-4-(4-Chlorophenyl)-2,3,9-trimethyl-6H-thieno[3,2-f][1,2,4]triazolo[4,3-a][1,4]diazepin-6-yl)-N-(2-((3-((2-(2,6-dioxopiperidin-3-yl)-1,3-dioxoisoindolin-4-yl)oxy)propyl)amino)-2-oxoethyl)acetamide] | decreased expression of BRD4 at all the time-points tested | Dmax ([1]; 8 h treatment, MDA-MB-231 cells, from Western blot densitometry, read-out: Dmax (maximal % of reduction toward DMSO control lane)): 88%
2 | – | – | – | 48 (≈ 37.7 µg/mL) | 17 (≈ 13.3 µg/mL) | 231.9 to 232.6 °C (dec.) | – | – | Cc1sc2c(c1C)C(c1ccc(Cl)cc1)=N[C@@H](CC(=O)NCC(=O)NCCCCOc1cccc3c1C(=O)N(C1CCC(=O)NC1=O)C3=O)c1nnc(C)n1-2 (stereo partly drawn) [Compound 28, 2-((S)-4-(4-Chlorophenyl)-2,3,9-trimethyl-6H-thieno[3,2-f][1,2,4]triazolo[4,3-a][1,4]diazepin-6-yl)-N-(2-((4-((2-(2,6-dioxopiperidin-3-yl)-1,3-dioxoisoindolin-4-yl)oxy)butyl)amino)-2-oxoethyl)acetamide] | – | –
3 | showed the well-known “hook effect” | abolish BRD4 degradation | 60 | 5070 (≈ 4410 µg/mL) | 11 (≈ 9.55 µg/mL) | 194.8 to 196.8 °C (dec.) | – | – | Cc1sc2c(c1C)C(c1ccc(Cl)cc1)=N[C@@H](CC(=O)N1CCN(CC(=O)NCCCCCOc3cccc4c3C(=O)N(C3CCC(=O)NC3=O)C4=O)CC1)c1nnc(C)n1-2 (stereo partly drawn) [Compound 34, 2-(4-(2-((S)-4-(4-Chlorophenyl)-2,3,9-trimethyl-6H-thieno[3,2-f][1,2,4]triazolo[4,3-a][1,4]diazepin-6-yl)acetyl)piperazin-1-yl)-N-(5-((2-(2,6-dioxopiperidin-3-yl)-1,3-dioxoisoindolin-4-yl)oxy)pentyl)acetamide] | decreased expression of BRD4 at all the time-points tested | concentration of maximal BRD4 degradation ([1]; dose-response 100 nM to 10 μM, 8 h, MDA-MB-231 cells): 300 nM
4 | – | – | – | – | – | 173.8 to 174.5 °C (dec.) | 107,8 % of control | 40,1 % of control | Cc1sc2c(c1C)C(c1ccc(Cl)cc1)=N[C@@H](CC(=O)N1CCN(CC(=O)NCCOCCOc3cccc4c3C(=O)N(C3CCC(=O)NC3=O)C4=O)CC1)c1nnc(C)n1-2 (stereo partly drawn) [Compound 35, 2-(4-(2-((S)-4-(4-Chlorophenyl)-2,3,9-trimethyl-6H-thieno[3,2-f][1,2,4]triazolo[4,3-a][1,4]diazepin-6-yl)acetyl)piperazin-1-yl)-N-(2-(2-((2-(2,6-dioxopiperidin-3-yl)-1,3-dioxoisoindolin-4-yl)oxy)ethoxy)ethyl)acetamide] | – | Densitometry (% of control), BRD4-immunoreactive band relative to DMSO vehicle ([1]; 16 h, MDA-MB-231 cells): 39,2 % of control; Densitometry (% of control), BRD4-immunoreactive band relative to DMSO vehicle ([1]; 24 h, MDA-MB-231 cells): 72,1 % of control
5 | – | – | – | – | – | 194.5 to 195.8 °C (dec.) | 110,8 % of control | 54,7 % of control | Cc1sc2c(c1C)C(c1ccc(Cl)cc1)=N[C@@H](CC(=O)N1CCN(CC(=O)NCCOCCOCCOc3cccc4c3C(=O)N(C3CCC(=O)NC3=O)C4=O)CC1)c1nnc(C)n1-2 (stereo partly drawn) [Compound 36, 2-(4-(2-((S)-4-(4-Chlorophenyl)-2,3,9-trimethyl-6H-thieno[3,2-f][1,2,4]triazolo[4,3-a][1,4]diazepin-6-yl)acetyl)piperazin-1-yl)-N-(2-(2-(2-((2-(2,6-dioxopiperidin-3-yl)-1,3-dioxoisoindolin-4-yl)oxy)ethoxy)ethoxy)ethyl)acetamide] | – | Densitometry (% of control), BRD4-immunoreactive band relative to DMSO vehicle ([1]; 16 h, MDA-MB-231 cells): 41,4 % of control; Densitometry (% of control), BRD4-immunoreactive band relative to DMSO vehicle ([1]; 24 h, MDA-MB-231 cells): 64,7 % of control
6 | – | – | – | – | – | 164.3 to 165.5 °C | 50 % of control | 65,6 % of control | Cc1ncsc1-c1ccc(CNC(=O)[C@@H]2C[C@@H](O)CN2C(=O)[C@@H](NC(=O)CCCNC(=O)CN2CCN(C(=O)C[C@@H]3N=C(c4ccc(Cl)cc4)c4c(sc(C)c4C)-n4c(C)nnc43)CC2)C(C)(C)C)cc1 [Compound 47, (2S,4R)-1-((S)-2-(4-(2-(4-(2-((S)-4-(4-Chlorophenyl)-2,3,9-trimethyl-6H-thieno[3,2-f][1,2,4]triazolo[4,3-a][1,4]diazepin-6-yl)acetyl)piperazin-1-yl)acetamido)butanamido)-3,3-dimethylbutanoyl)-4-hydroxy-N-(4-(4-methylthiazol-5-yl)benzyl)pyrrolidine-2-carboxamide] | – | –
7 | – | – | – | – | – | – | – | – | Cc1sc2c(c1C)C(c1ccc(Cl)cc1)=N[C@@H](CC(=O)NCCCCNC(=O)COc1cccc3c1C(=O)N(C1CCC(=O)NC1=O)C3=O)c1nnc(C)n1-2 (some centres unmarked) [dBET1] | – | Thermodynamic aqueous solubility, HCl 0.01 N (pH = 2.0) ([3]; pH 2.0, literature data ref 58): 171 ^c μM; Thermodynamic aqueous solubility, PBS 0.1 M (pH = 7.4) ([3]; pH 7.4, literature data ref 58): 60 ^c μM

Row | Structure (SMILES) | dose-response of BRD4 degradation (in words) ([1]; 8 h, MDA-MB-231 cells) | effect of cotreatment with proteasome inhibitor bortezomib on BRD4 degradation ([1]; 8 h) | DC50 [1, 4] [nM] | solubility thermodynamic at 2 h [2, 5] [µM] | solubility thermodynamic at 2 h [2, 6] [µM] | melting point | Densitometry (% of control), BRD4-immunoreactive band relative to DMSO vehicle ([1]; 4 h, MDA-MB-231 cells) | Densitometry (% of control), BRD4-immunoreactive band relative to DMSO vehicle ([1]; 8 h, MDA-MB-231 cells) | BRD4 degradation in time-course experiments (in words) ([1]; MDA-MB-231 cells) | other results
8 | Cc1sc2c(c1C)C(c1ccc(Cl)cc1)=N[C@@H](CC(=O)NCC(=O)NCCCCCOc1cccc3c1C(=O)N(C1CCC(=O)NC1=O)C3=O)c1nnc(C)n1-2 (stereo partly drawn) [Compound 29, 2-((S)-4-(4-Chlorophenyl)-2,3,9-trimethyl-6H-thieno[3,2-f][1,2,4]triazolo[4,3-a][1,4]diazepin-6-yl)-N-(2-((5-((2-(2,6-dioxopiperidin-3-yl)-1,3-dioxoisoindolin-4-yl)oxy)pentyl)amino)-2-oxoethyl)acetamide] | degradation was observed only at 1 and 3 μM concentrations | abolish BRD4 degradation | 184 | 39 (≈ 31.2 µg/mL) | 15 (≈ 12 µg/mL) | 223.4 to 225.1 °C (dec.) | – | – | decreased expression of BRD4 at all the time-points tested | –
9 | Cc1ncsc1-c1ccc(CNC(=O)[C@@H]2C[C@@H](O)CN2C(=O)[C@@H](NC(=O)CNC(=O)CN(C)C(=O)C[C@@H]2N=C(c3ccc(Cl)cc3)c3c(sc(C)c3C)-n3c(C)nnc32)C(C)(C)C)cc1 [Compound 45, (2S,4R)-1-((S)-2-(2-(2-(2-((S)-4-(4-Chlorophenyl)-2,3,9-trimethyl-6H-thieno[3,2-f][1,2,4]triazolo[4,3-a][1,4]diazepin-6-yl)-N-methylacetamido)acetamido)acetamido)-3,3-dimethylbutanoyl)-4-hydroxy-N-(4-(4-methylthiazol-5-yl)benzyl)pyrrolidine-2-carboxamide] (JQ1acid-[Sar]G[Tle][Hyp]-{NHBn(4-(4-Me-thiazol-5-yl))}) | – | – | – | – | – | 114.6 to 116 °C | 41,6 % of control | 107,9 % of control | – | –
10 | Cc1ncsc1-c1ccc(CNC(=O)[C@@H]2C[C@@H](O)CN2C(=O)[C@@H](NC(=O)CNC(=O)CN2CCN(C(=O)C[C@@H]3N=C(c4ccc(Cl)cc4)c4c(sc(C)c4C)-n4c(C)nnc43)CC2)C(C)(C)C)cc1 [Compound 46, (2S,4R)-1-((S)-2-(2-(2-(4-(2-((S)-4-(4-Chlorophenyl)-2,3,9-trimethyl-6H-thieno[3,2-f][1,2,4]triazolo[4,3-a][1,4]diazepin-6-yl)acetyl)piperazin-1-yl)acetamido)acetamido)-3,3-dimethylbutanoyl)-4-hydroxy-N-(4-(4-methylthiazol-5-yl)benzyl)pyrrolidine-2-carboxamide] | – | – | – | – | – | 183.3 to 184.8 °C | 61,7 % of control | 135 % of control | – | –
